Measurements reported in PubChem BioAssay (NCI).
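Cells were grown in 96-well plates and exposed to each compound for 48 hours at five concentrations; endpoints were interpolated linearly between bracketing concentrations, or set to the highest concentration if not reached. TGI: concentration producing complete growth inhibition.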

Experiments:
Test in all cases: NCI tumour cell line growth inhibition, 48 h
M14 melanoma = system: M14 melanoma
NCI-H460 lung = system: NCI-H460 lung
OVCAR-8 ovarian = system: OVCAR-8 ovarian
BT-549 breast = system: BT-549 breast
HCT-15 colon = system: HCT-15 colon
SNB-75 CNS = system: SNB-75 CNS
SK-OV-3 ovarian = system: SK-OV-3 ovarian
MOLT-4 leukemia = system: MOLT-4 leukemia
NCI-H226 lung = system: NCI-H226 lung
COLO 205 colon = system: COLO 205 colon
OVCAR-4 ovarian = system: OVCAR-4 ovarian
OVCAR-5 ovarian = system: OVCAR-5 ovarian
RXF 393 renal = system: RXF 393 renal
SW-620 colon = system: SW-620 colon
HOP-92 NSCLC = system: HOP-92 NSCLC
OVCAR-3 ovarian = system: OVCAR-3 ovarian
ACHN renal = system: ACHN renal
UACC-62 melanoma = system: UACC-62 melanoma
MDA-N = system: MDA-N

Structure (SMILES) | TGI (M14 melanoma) [µM] | TGI (NCI-H460 lung) [µM] | TGI (OVCAR-8 ovarian) [µM] | TGI (BT-549 breast) [µM] | TGI (HCT-15 colon) [µM] | TGI (SNB-75 CNS) [µM] | TGI (SK-OV-3 ovarian) [µM] | TGI (MOLT-4 leukemia) [µM] | TGI (NCI-H226 lung) [µM] | TGI (COLO 205 colon) [µM] | TGI (OVCAR-4 ovarian) [µM] | TGI (OVCAR-5 ovarian) [µM] | TGI (RXF 393 renal) [µM] | TGI (SW-620 colon) [µM] | TGI (HOP-92 NSCLC) [µM] | TGI (OVCAR-3 ovarian) [µM] | TGI (ACHN renal) [µM] | TGI (UACC-62 melanoma) [µM] | TGI (MDA-N) [µM]
C/C=C(/C)C(=O)O[C@H]1[C@H]2[C@@H]([C@@H](OC(C)=O)[C@H](C)C(=O)[C@@]34C[C@@H](C)C(=O)[C@]3(/C=C(\C)[C@H]1OC(C)=O)O4)C2(C)C | 5.22 | > 20 | 6.54 | 5.84 | 5.77 | > 20 | > 20 | 6.46 | 6.56 | 5.32 | 14.2 | 7.77 | 6.75 | 6.41 | 7.73 | 7.01 | 7.05 | 6.99 | 4.94
CC1C2CC(CC2(C)O)C1(C)C (configuration not stated) | > 100 | > 100 | > 100 | > 100 | – | > 100 | > 100 | > 100 | > 100 | > 100 | > 100 | > 100 | > 100 | > 100 | > 100 | > 100 | > 100 | > 100 | > 100
C/C=C/C=C\C=C/C(O)C(C)C(CCC(C)C1OC(=O)C=CC1C)OP(=O)(O)O (configuration not stated) | 0.685 | 1.76 | 1.26 | 0.591 | 1.97 | 2.85 | 1.68 | 0.613 | 2.02 | 0.788 | 2.86 | 0.574 | 1.38 | 1.67 | 0.881 | 0.393 | 1.26 | 1.11 | 1.32
O=C1/C(=C/c2ccc(O)cc2)CCc2ccc([N+](=O)[O-])cc21 | > 100 | > 100 | > 100 | > 100 | > 100 | > 100 | > 100 | > 100 | > 92.7 | > 100 | > 100 | > 100 | > 92.3 | > 100 | > 89.6 | > 100 | > 100 | > 100 | > 100
O=C(NCCCNCCN1C(=O)c2cccc3cc([N+](=O)[O-])cc(c23)C1=O)c1cc(-c2ccccc2)nc2ccccc12 | 3.3 | 12.6 | 17 | 20.2 | 17.2 | 14.1 | 21.6 | 6.01 | 24.2 | 4.26 | 15.1 | 18.6 | 3.34 | 5.37 | 15 | 18.9 | 14.5 | 17.4 | 2.89
CCOC(=O)CC1(Cc2ccc(OCc3ccccc3)cc2)C(=O)OC(c2ccccc2)N1C(=O)c1ccccc1 (configuration not stated) | > 100 | 62.1 | > 100 | > 100 | > 100 | – | > 100 | > 100 | > 100 | > 100 | > 100 | > 100 | > 100 | > 100 | > 100 | > 100 | > 100 | > 100 | > 100
Cn1c(=O)c2nc3c(=O)n(C)c(=O)n(CC(N)=O)c3nc2n(C)c1=O | > 100 | > 100 | > 100 | > 100 | > 100 | > 100 | > 100 | – | > 100 | > 100 | > 100 | > 100 | > 100 | > 100 | > 100 | > 100 | > 100 | > 100 | > 100
O=C(NNC1=NCCCN1)c1ccco1 | > 100 | > 100 | > 100 | > 100 | > 100 | > 100 | > 100 | > 100 | > 100 | > 100 | > 100 | > 100 | > 100 | > 100 | > 100 | > 100 | > 100 | > 100 | > 100
CON(C)C(=O)[C@H]1C[C@@]1(C)CO | > 100 | > 100 | > 100 | > 100 | > 100 | > 100 | > 100 | > 100 | > 100 | > 100 | > 100 | > 100 | > 100 | > 100 | > 100 | > 100 | > 100 | > 100 | > 100
O=S1(=O)c2ccccc2C(Nc2ccccc2)N1c1ccccc1 (configuration not stated) | – | > 100 | > 100 | > 100 | > 100 | > 100 | > 100 | > 100 | > 100 | – | > 100 | > 100 | > 100 | > 100 | > 100 | > 100 | > 100 | > 100 | > 100
N/N=C(\c1nc2ccc([N+](=O)[O-])cc2[nH]c1=O)C(O)c1ccc(Cl)c(Cl)c1 (configuration not stated) | > 100 | > 100 | > 100 | > 100 | > 100 | > 100 | > 100 | > 100 | > 100 | > 100 | > 100 | > 100 | > 100 | > 100 | > 100 | > 100 | > 100 | > 100 | > 100
CCOC(=O)C1(C#N)C(=O)c2cc[n+](CC[n+]3ccc4c(c3)C(=O)C(C#N)(C(=O)OCC)C4=O)cc2C1=O (configuration not stated) | > 100 | > 100 | > 100 | > 100 | > 100 | > 100 | > 100 | > 100 | > 100 | – | > 100 | > 100 | > 100 | > 100 | > 100 | > 100 | > 100 | > 100 | > 100
